Source: ChEMBL document CHEMBL2073807, “Effects of glibenclamide on glycylsarcosine transport by the rat peptide transporters PEPT1 and PEPT2” (Br J Pharmacol, 1999)

Assays:
[1] = target: T1, Solute carrier family 15 member 2 (Rattus norvegicus, UniProt Q63424); experiment: TP_TRANSPORTER: inhibition of Gly-Sar uptake in PEPT2-expressing LLC-PK1 cells; assay type: functional, cell-based
T1 sequence (Q63424 whole entry): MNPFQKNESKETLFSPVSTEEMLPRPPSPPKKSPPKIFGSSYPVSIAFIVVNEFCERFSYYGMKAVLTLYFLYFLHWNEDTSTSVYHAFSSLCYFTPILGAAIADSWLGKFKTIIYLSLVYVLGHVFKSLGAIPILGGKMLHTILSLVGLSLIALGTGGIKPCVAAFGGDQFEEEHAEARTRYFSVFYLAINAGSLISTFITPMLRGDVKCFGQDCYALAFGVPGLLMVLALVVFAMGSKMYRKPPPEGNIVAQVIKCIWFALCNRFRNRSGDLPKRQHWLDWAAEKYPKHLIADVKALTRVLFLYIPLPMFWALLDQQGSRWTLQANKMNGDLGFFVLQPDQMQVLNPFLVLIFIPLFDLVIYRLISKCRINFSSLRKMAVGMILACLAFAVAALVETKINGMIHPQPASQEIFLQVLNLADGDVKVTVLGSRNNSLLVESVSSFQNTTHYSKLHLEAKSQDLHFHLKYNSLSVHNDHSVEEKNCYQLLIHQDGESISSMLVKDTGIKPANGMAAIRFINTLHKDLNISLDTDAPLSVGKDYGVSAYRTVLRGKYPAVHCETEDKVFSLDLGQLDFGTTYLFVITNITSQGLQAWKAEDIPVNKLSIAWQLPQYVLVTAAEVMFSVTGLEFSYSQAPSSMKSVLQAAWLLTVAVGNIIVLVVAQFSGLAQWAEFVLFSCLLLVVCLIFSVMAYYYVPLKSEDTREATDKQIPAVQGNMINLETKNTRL

[2] = target: T2, Solute carrier family 15 member 1 (Rattus norvegicus, UniProt P51574); experiment: TP_TRANSPORTER: inhibition of Gly-Sar uptake in PEPT1-expressing LLC-PK1 cells; assay type: functional, cell-based
T2 sequence (P51574 whole entry): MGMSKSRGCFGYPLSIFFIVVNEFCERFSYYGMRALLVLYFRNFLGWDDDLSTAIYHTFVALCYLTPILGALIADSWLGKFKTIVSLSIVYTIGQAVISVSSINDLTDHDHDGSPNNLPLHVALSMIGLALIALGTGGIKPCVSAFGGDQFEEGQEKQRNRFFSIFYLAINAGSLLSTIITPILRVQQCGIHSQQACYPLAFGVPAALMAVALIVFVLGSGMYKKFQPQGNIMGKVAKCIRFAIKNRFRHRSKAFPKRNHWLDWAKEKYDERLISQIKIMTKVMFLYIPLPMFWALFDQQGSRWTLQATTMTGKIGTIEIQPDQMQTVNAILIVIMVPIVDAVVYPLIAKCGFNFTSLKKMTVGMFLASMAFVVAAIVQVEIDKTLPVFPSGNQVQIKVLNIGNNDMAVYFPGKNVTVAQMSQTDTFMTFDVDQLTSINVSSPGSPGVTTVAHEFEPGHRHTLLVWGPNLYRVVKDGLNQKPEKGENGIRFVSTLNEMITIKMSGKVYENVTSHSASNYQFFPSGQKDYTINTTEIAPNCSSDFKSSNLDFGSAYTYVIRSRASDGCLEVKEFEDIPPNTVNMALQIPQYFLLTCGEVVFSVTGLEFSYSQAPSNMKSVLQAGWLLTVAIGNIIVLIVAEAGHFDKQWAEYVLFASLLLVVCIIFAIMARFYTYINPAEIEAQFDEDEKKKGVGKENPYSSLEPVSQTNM

In the case of `COc1ccc(Cl)cc1C(=O)NCCc1ccc(S(=O)(=O)NC(=O)NC2CCCCC2)cc1` [GLYBURIDE], the Ki [1] is reported as 7.8 µM and the Ki [2] is reported as 25 µM.
